Measurements reported in article PMC11134391 (JACS Au, 2024).

What was measured:
[1] = target: T1, HDAC8 (Homo sapiens, UniProt Q9BY41); assay: HDAC inhibition assay; type: biochemical
T1 sequence (Q9BY41 1-377): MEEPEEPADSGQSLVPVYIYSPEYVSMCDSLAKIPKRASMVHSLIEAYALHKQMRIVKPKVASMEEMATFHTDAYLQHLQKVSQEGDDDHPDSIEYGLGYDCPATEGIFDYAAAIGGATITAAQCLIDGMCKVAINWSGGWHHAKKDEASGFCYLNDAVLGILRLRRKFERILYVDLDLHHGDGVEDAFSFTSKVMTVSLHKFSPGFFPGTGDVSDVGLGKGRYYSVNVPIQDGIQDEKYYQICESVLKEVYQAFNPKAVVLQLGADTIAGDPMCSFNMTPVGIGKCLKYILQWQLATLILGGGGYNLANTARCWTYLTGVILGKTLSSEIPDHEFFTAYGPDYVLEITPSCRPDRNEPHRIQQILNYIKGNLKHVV

[2] = target: T2, HDAC6 (Homo sapiens, UniProt Q9UBN7); assay: HDAC inhibition assay with preincubation, HDAC6; type: biochemical; settings: preincubation 0, 0.5, 1 or 2 h at 37 °C
T2 sequence (Q9UBN7 1-1215): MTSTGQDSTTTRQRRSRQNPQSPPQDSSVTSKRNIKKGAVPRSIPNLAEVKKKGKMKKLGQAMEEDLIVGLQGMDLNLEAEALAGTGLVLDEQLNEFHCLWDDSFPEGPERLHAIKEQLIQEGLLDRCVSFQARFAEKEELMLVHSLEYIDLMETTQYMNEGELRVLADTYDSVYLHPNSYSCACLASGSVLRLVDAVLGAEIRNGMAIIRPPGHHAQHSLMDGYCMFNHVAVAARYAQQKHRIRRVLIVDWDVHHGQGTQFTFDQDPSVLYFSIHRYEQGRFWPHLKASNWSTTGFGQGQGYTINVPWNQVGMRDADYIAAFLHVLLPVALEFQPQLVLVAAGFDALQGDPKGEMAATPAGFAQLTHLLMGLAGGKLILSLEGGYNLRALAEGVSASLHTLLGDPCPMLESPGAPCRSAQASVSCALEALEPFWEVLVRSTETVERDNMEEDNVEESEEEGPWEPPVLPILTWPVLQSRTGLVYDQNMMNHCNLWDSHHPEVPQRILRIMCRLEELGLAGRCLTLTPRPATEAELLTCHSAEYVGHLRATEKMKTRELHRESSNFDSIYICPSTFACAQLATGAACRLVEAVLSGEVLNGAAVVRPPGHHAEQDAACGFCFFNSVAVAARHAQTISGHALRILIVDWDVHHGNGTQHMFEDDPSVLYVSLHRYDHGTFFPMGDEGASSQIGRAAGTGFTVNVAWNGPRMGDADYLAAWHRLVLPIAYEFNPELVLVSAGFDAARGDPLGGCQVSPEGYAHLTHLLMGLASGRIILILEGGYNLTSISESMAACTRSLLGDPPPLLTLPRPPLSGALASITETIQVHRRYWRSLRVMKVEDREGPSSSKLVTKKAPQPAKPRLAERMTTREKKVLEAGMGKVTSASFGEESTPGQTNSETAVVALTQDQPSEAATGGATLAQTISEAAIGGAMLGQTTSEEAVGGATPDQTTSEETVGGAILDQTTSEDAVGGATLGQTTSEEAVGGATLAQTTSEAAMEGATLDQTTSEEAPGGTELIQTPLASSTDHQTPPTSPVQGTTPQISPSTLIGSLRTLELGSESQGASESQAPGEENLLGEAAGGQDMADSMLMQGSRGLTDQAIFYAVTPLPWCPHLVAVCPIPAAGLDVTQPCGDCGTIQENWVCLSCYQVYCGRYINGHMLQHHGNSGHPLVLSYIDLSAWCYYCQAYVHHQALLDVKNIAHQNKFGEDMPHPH

[3] = target: T2, HDAC6; assay: HDAC inhibition assay; type: biochemical; settings: for selectivity for HDAC6 over HDAC8 (between the two enzymes): from Ki values
[4] = test system: lysine acetylation (α-tubulin, H3K18, H3K27, and SMC3) in HEK293T cells; assay: Protein acetylation assay; type: cell-based, human; settings: 5 h, 1 or 10 μM, Western blot
[5] = target: T3, HDAC11 (Homo sapiens, UniProt Q96DB2); assay: HDAC inhibition assay with preincubation, HDAC11; type: biochemical; settings: preincubation 0, 0.5, 1 or 2 h at 37 °C
T3 sequence (Q96DB2 1-347): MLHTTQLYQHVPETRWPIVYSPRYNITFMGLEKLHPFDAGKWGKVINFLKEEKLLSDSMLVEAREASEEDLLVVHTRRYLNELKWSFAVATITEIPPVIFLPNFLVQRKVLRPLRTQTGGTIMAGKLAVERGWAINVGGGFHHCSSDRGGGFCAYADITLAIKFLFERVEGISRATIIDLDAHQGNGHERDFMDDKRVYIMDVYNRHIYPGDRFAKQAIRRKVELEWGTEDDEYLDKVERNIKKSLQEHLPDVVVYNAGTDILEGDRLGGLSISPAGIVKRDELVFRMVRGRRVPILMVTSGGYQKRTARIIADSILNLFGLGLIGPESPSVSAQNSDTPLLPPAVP

[6] = target: T1, HDAC8; assay: Cellular thermal shift assay; type: cell-based; settings: HEK293T cells, 10 µM, 2 h

| Structure (SMILES) | Ki [1] | change of IC50 upon preincubation with HDAC6 [2] | selectivity for HDAC6 over HDAC8 (between the two enzymes) [3] | acetylation of α-tubulin compared to DMSO control [4] | change of IC50 upon preincubation with HDAC11 [5] | Ki [3] | thermal shift of HDAC8 relative to DMSO control [6] |
| --- | --- | --- | --- | --- | --- | --- | --- |
| COc1ccc(OS(=O)(=O)Oc2cccc(C(=O)NO)c2)cc1OC [A17] | 22 nM |  |  |  |  |  |  |
| O=C(NO)c1cc(F)cc(OS(=O)(=O)Oc2ccccc2)c1 [C1] |  | did not observe any decrease in IC50 value upon preincubation | 20 fold | significant upregulation |  |  |  |
| Cc1c(OS(=O)(=O)Oc2ccc(Oc3ccccc3)cc2)cccc1C(=O)NO [D21] |  |  |  |  | did not observe any decrease in IC50 value upon preincubation |  |  |
| O=C(NO)c1cncc(OS(=O)(=O)Oc2ccc3ccccc3c2)c1 [E24] |  | did not observe any decrease in IC50 value upon preincubation | ~20 fold | significant upregulation |  | 14 nM | no shift |
